Laboratory results from patent US20240173353A1, “UNIVERSAL CHIMERIC ANTIGEN RECEPTOR T-CELL AND APPLICATION THEREOF” (SHANGHAI IASO BIOTECHNOLOGY CO., LTD., priority 2021, published 2024).

Columns and labels:
[1] = tested on: anti-BCMA-CAR-T cells; test: CD107a translocation of anti-BCMA-CAR-T cells co-incubated with target cells; format: cell-based, human; details: LCK-sgRNA16 editing group (42% T316I), 100 nM dasatinib 12 hr
[2] = tested on: CD19/BCMA bispecific CAR-T cells; test: CD107a translocation of CD19/BCMA bispecific CAR-T cells; format: cell-based, human; details: CAR-T cells with LCK-T316I mutation, 100 nM dasatinib 12 hr, U266B1 and Raji
Source text: The inventors edited the prepared CD19/BCMA dual-target CAR-T by electroporation with the CBE3 protein, the RNP complexes (18 nt and 21 nt) of CBE3 and LCK-sgRNA12, and the RNP complexes (18 nt and 21 nt) of CBE3 and LCK-sgRNA16 respectively, to achieve three different groups of editing treatments. […] These target cells include U266B1 (BCMA positive), Raji (CD19 positive), K562 (negative control), allogeneic T cells (negative control) and blank Buffer control (negative control).

[3] = tested on: NK cells; test: CD107a release of NK cells activated by K562; format: cell-based, human
Experimental: The inventor used Miltenyi human NK sorting magnetic beads to separate NK cells from human peripheral blood, and used DAKEWE NK medium to culture and expand them in vitro. On Day 8, a population of NK cells with more than 95% having positive CD56 expression could be obtained. These NK cells were taken out and treated with 0 nM, 100 nM and 200 nM dasatinib respectively for 24 hr, and then divided into two groups, one of which was not activated, and the other group was stimulated with MHC-class I molecule-deficient K562 cells for 5 hr. Then, the CD107a release of NK cells were detected in both of them.
The inventors isolated NK cells from human PBMCs, and then cultured and differentiated them in NK medium to obtain CD56-positive NK cells with a purity higher than 95%. The exploration of the threshold of NK activation with dasatinib was carried out with seven concentrations in the range of 0-50 nM, namely 0, 10, 20, 25, 30, 40 and 50 nM, and the treatment was carried out overnight. The next day, the cells were resuspended with NK medium and activated with K562. Lymphocyte activator was used as a positive control for activation, and a part of NK cells that were not activated by K562 were also kept. Two replicates were set for each group. anti-CD107a antibody and monensin were added while carrying out activation, and after co-incubation for 6 hr, the CD107a release of CD56-positive NK cells was detected by flow cytometry.
The inventors isolated NK cells from human PBMCs, and then cultured and differentiated them in NK medium to obtain CD56-positive NK cells with a purity higher than 95%. Three pretreatments were done respectively (1) absence of dasatinib pretreatment; (2) pretreatment with […] pretreatment with 50 nM dasatinib, and the cells were cultured overnight. The next day, the concentration of dasatinib was reduced, and the concentration was adjusted to 0, 7.5, 12.5, 17.5 and 25 nM respectively. […] Two replicates were set for each group.
In order to repeatedly verify that the inhibition of NK cell activation function by dasatinib has an extended effect, the inventors repeated the above experiment. […] After 4 hr of co-incubation, CD107a release from CD56 positive NK cells was detected.
The inventors used CD3-negative cells in human PBMCs, which contained more than 5% of CD56-positive NK cells. […] The next day, the cells were resuspended with NK medium and activated with K562. Lymphocyte activator was used as a positive control for activation, and a part of NK cells that were not activated by K562 were also kept. Two replicates were set for each group. anti-CD107a antibody and monensin were added while carrying out activation, and after co-incubation for 6 hr, the CD107a release of CD56-positive NK cells was detected by flow cytometry.
The inventors isolated NK cells from human PBMCs, and then cultured and differentiated them in NK medium to obtain CD56-positive NK cells with a purity higher than 95%. […] Two replicates were set for each group.

[4] = tested on: normal human T lymphocytes; details: in vitro; cited from earlier work
[5] = tested on: anti-BCMA CAR-T cells; test: Luciferase killing assay of anti-BCMA CAR-T on luciferase-positive target cells; details: CBE3 and CBE3+sg12 groups, 100 nM dasatinib 12 hr, effector-to-target 1:1, 24 hr

Cc1nc(Nc2ncc(C(=O)Nc3c(C)cccc3Cl)s2)cc(N2CCN(CCO)CC2)n1 [dasatinib]
positive CD107a translocation in CD8 and CAR double-positive cells ([1]; RPMI-8226): 44.7%
positive CD107a translocation in CD8 and CAR double-positive cells ([1]; U266B1): 39.6%
CD107a positive rate [2]: above 50%
concentration that effectively inhibits NK cell activation in vitro (minimum) ([3]; 0-50 nM overnight, K562 6 hr): 30 nM
concentration enough to inhibit CD107a translocation and activation of NK cells ([3]; 24 hr treatment, K562 5 hr): 100 nM
cells still activated ([3]; NK cells without pretreatment, 7.5 nM dasatinib 4 hr, K562): about 4.4%
release of CD107a ([3]; NK cells, 25 nM and 50 nM pretreatment, changed to 12.5, 17.5 and 25 nM, K562): lower than 1%
release of CD107a ([3]; NK cells, 25 nM and 50 nM pretreatment, reduced to 7.5 nM, K562): lower than 1%
CD107a translocation ([3]; NK cells, 100 nM and 200 nM dasatinib 24 hr, K562 5 hr): 2%
release of CD107a ([3]; NK cells, pretreatment with three dasatinib concentrations (0, 25, 50 nM), reduced to 0 nM, K562): above 58%
positive CD107a release ([3]; NK cells, repeat, 50 nM pretreatment, reduced to 0 nM, K562 4 hr): 39.7%
basal CD107a translocation ([3]; non-activated NK cells, 100 nM and 200 nM dasatinib 24 hr): 2%
viability of T cells [4]: will not affect the viability of T cells
cytotoxicity of anti-BCMA CAR-T (luciferase value of RPMI-8226) [5]: significantly inhibited
